Laboratory results: patent US20100233131A1 (PUSAN NATIONAL UNIVERSITY INDUSTRY-UNIVERSITY COOP, priority 2008, published 2010)

Legend:
Assay type in all cases: cell-based, human
ATSCs [1] = assay: Colony forming unit (CFU) assay; conditions: 5 ng/ml selenium 3 days, colonies counted after 15 days, vs control ATSCs
Description: Also, the proliferation efficiency of colony forming units (CFU) in the selenium-treated cells was evaluated. […] First, the ATSCs were seeded in 10 cm dishes at a density of 5×10^5 and cultured in a 2% FBS-containing α-MEM medium for 8 hours at 37° C. in a CO2 incubator. […] After 15 days, the cells were fixed with 4% paraformaldehyde (PFA) for 30 minutes at room temperature and stained with 0.1% toluidine blue dissolved in 1% PFA. The proliferation efficiency of the CFU was evaluated via visual colony counts.

ATSCs [2] = assay: Telomerase activity of selenium-treated ATSCs; conditions: 5 ng/ml selenium for 3 days
Source text: An increase in telomerase activity is a characteristic of a stem cell, and a decrease in telomerase activity indicates differentiation of the cells.

ATSCs [3] = assay: Prolonged culture / proliferation lifespan
Source text: During prolonged culture periods, the population of control ATSCs underwent a progressive reduction in proliferation potential. The cells finally underwent senescence after 21 to 23 passages (90 to 100 days in culture). At the end of the proliferation lifespan, the cells were flattered and larger in morphology in a monolayer similar to that described for senescent fibroblasts. […] The rate of proliferation of selenium-treated ATSCs resembled that of the control ATSCs.

ATSCs [4] = assay: Molecular marker expression by real time RT-PCR and Western blot
Source text: The expression of molecular markers in both the control ATSCs and the selenium-treated cells was verified via real time RT-PCR and Western blot analysis.

ATSCs [5] = assay: Western blot of proliferation-related signaling proteins; conditions: time-dependent
ATSCs [6] = assay: ROS generation (DCF fluorescence)
ATSCs [7] = assay: Oligonucleotide microarray analysis of gene expression; conditions: vs control ATSCs
Description: To confirm the pattern of gene expression, oligonucleotide microarray analysis was performed.

[8] = test system: Rex1, Nanog and Oct4 promoter regions; assay: Bisulfite sequencing of CpG methylation on stemness gene promoter regions
Description: Also, a bisullipide sequencing analysis was performed in order to establish 5′-3′ CpG methylation profiles across a proximal promoter, a proximal enhancer and an early transcription start site (TSS) of each gene.
Genomic DNA of ATSCs was purified by phenol/chloroform/isoamylalcohol extraction, and chloroform extraction once, and then was precipitated with ethanol. The DNA was dissolved in distilled water. Bisullipide conversion was performed using EZ DNA Methylation-Gold Kit (Zymo Research, USA), as described by a manufacturer. That is, unmethylated cytosines on the DNA were converted into uracils via the heat-denaturation of DNA with specifically designed CT conversion reagent. The DNA was then desulphonated and subsequently cleaned and eluted. The bisulfite-modified DNA was then immediately used for PCR or stored at −20° C. or below. The converted DNA was amplified via PCR using primers designed with MethPrimer (http://www.urogene.org/methprimer). The PRC was conducted in a MyGenie 96 Gradient Thermal Block (Bioneer, Daejeon, South Korea) according to the following protocol, including 95° C. for 15 minutes, 40 cycles of 95° C. for 20 seconds, 43 to 58° C. for 40 seconds, and 72° C. for 30 seconds, elongation at 72° C. for 10 minutes and soaking at 4° C. After electrophoresis on 1.5% agarose gel, the remaining PCR products were cloned into bacteria (DH5α) by the pGEM T-Easy Vector System I (Promega, Madison, Wis., USA). The DNA extracted from bacterial clones were analyzed via sequencing with M13 reverse primers using the ABI 3730XL capillary DNA sequencer (Applied Biosystems, Foster City, Calif., USA), and represented as rows of circles, each circle denoting the methylation status of CpG.

ATSCs [9] = assay: Cell scraped wound model assay
Description: Cells were seeded into 60 mm culture dishes, and a straight line was lightly carved across the center, outer and bottom surface of each dish with a scalpel. The ATSCs were incubated overnight in a serum-free medium, scraped from one side of the marked line, and washed three times with a medium to remove loose or dead cells. […] The control dish was also scratched in the same manner as described above, and incubated in a selenium-free medium. Cells migrated across the marked reference line were photographed under a phase contrast microscope.

ATSCs [10] = assay: Osteogenic and adipogenic differentiation in vitro
Description: To estimate the differentiation potential of selenium-treated ATSCs, osteogenic and adipogenic differentiation potential was evaluated.
In the present embodiment, it was confirmed that the selenium-treated ATSCs accumulated significant amounts of calcium and lipid droplets after only one week of osteogenetic and adipogenetic induction in vitro (FIG. 17). Differences in formation of bone nodules and lipid droplets between the control and selenium-treated ATSCs were estimated by calculating the number of stained bone nodules and lipid droplets in 25 randomly selected fields (regions).

ATSCs [11] = assay: Neural differentiation in vitro
Source text: In an attempt to estimate differentiation potential of selenium-treated ATSCs into neural cells in vitro, low levels of Nestin protein expression were detected in the selenium-treated ATSCs after the induction of differentiation (FIG. 19). After neural differentiation, the selenium-treated ATSCs expressed higher levels of Tuj, GFAP, MAP2ab and NF160 than the control ATSCs (FIG. 19). […] It means that there is a difference in differential potential between the control ATSCs and the selenium-treated ATSCs.

ATSCs [12] = assay: Differentiation into insulin-producing cells; conditions: after beta-cell-like differentiation, vs differentiated control ATSCs
Description: Moreover, for differentiation of cells similar to beta cells, cells were cultured in “N2 media-NA” containing DMEM/F12 (Gibco-Invitrogen) supplemented with 10 mM nicotinamide, ITS (1:50), B27 (1:50; Invitrogen) and 15% FBS. After 24-hour culture, the medium was changed with a high glucose (3500 mg/L)-containing differentiation medium for 2 weeks. After the induction of differentiation, double immunocytochemistry was conducted using insulin (1:800; Sigma) and c-peptide (1:100; Milipore) antibodies.

Compound: O=[Se]([O-])[O-].[Na+].[Na+] [selenium, sodium selenite]
- cell proliferation increase by CFU levels (ATSCs [1]): at least 1.8 times
- increase in telomerase activity (ATSCs [2]): 2 fold
- passages of continuous growth (ATSCs [3]): > 21 passages
- duration of continuous growth (ATSCs [3]; control ATSCs senescent after 21 to 23 passages): more than 3 months
- acetylation of Histones 3 and 4 (ATSCs [4]): attenuated
- expression of GFAP, Tuj, p53 and p21 (ATSCs [4]): downregulation
- expression of Nestin and c-Myc (ATSCs [4]): induced expression
- Rex1 expression (ATSCs [4]; vs control ATSCs): significantly increased
- expression of stemness and functional genes (Rex1, Nanog, Oct4, Sox2, Runx3, CDK1, CDK2, Nestin, VEGF, FGFR1) (ATSCs [4]; vs control ATSCs): overexpression
- activation of PI3K and downstream mediators (p-Rac, p-c-Raf, p-MEK, p-ERK, p-Stat3, p-Akt) (ATSCs [5]; 0, 3, 6 and 12 hours): significant activation
- concentration of apoptosis-related protein p-SAPK/JNK (ATSCs [5]): reduced
- increased fluorescence intensity of DCF (ROS generation) (ATSCs [6]): compensated
- upregulation of cell proliferation-associated genes (ATSCs [7]): 42%
- Nanog promoter methylation ([8]; third region (-86 to +66) to the TSS): effectively demethylated
- Oct4 promoter CpG methylation ([8]; third region, control ATSCs 65.7%): 30.3%
- Rex1 region CpG methylation ([8]; third region, control ATSCs 72.2%): 42.2%
- migration of ATSCs across the reference line (ATSCs [9]; 5 ng/ml selenium, 24 hours, vs control ATSCs): three times higher
- expression of migration-associated factors MMP1, MMP3, SDF1, VEGF and CXCR4 (ATSCs [9]; after selenium treatment): increases in expression
- lipid droplets vs control ATSCs (ATSCs [10]; adipogenic induction, eluted dye quantitative assay): six-fold more
- level of osteonectin, RXR and osteopontin mRNA (ATSCs [10]; during osteogenesis): significant increases
- levels of AP and PPAR-γ mRNAs (ATSCs [10]; in adipogenesis): significant increases
- bone nodules vs control ATSCs (ATSCs [10]; osteogenic induction, eluted dye quantitative assay): Five-fold more
- acetyl-histones 3 and 4 (Western blot) (ATSCs [11]; after neural differentiation): overexpressed
- expression of Tuj, GFAP, MAP2ab and NF160 (ATSCs [11]; after neural differentiation, vs control ATSCs): higher levels
- neural differentiation (MAP2ab/total cells) (ATSCs [11]; control ATSCs 2.4%): 9.0 % of total cells
- insulin secretion with C-peptide (ATSCs [12]): secreted a significant amount of insulin
